Consider 8 cell lines from the supplement of paper PMC10307832.

Common to all, as to assay: relative viability (nuclei count vs DMSO), 5 days (fraction); higher = more cells survive
Compound in the test “Nelarabine + Pemetrexed”: COc1nc(N)nc2c1ncn2[C@@H]1O[C@H](CO)[C@@H](O)[C@@H]1O [Nelarabine] + Nc1nc2[nH]cc(CCc3ccc(C(=O)N[C@@H](CCC(=O)O)C(=O)O)cc3)c2c(=O)[nH]1 [Pemetrexed] (partner 0.2 µM)
The method in brief:
(§1)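 Lung cancer cell lines in 1536-well plates got either a single drug or a fixed anchor-drug dose together with five library-drug doses (not always all listed) in √10 steps, by pin tool, on the day after seeding. Nuclei were counted after 5 days, and relative viability is the treated-to-vehicle ratio of nuclei counts. Values are medians of duplicate plates.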

Compound in the test “Adavosertib + Alpelisib”: C=CCn1c(=O)c2cnc(Nc3ccc(N4CCN(C)CC4)cc3)nc2n1-c1cccc(C(C)(C)O)n1 [Adavosertib] + Cc1nc(NC(=O)N2CCC[C@H]2C(N)=O)sc1-c1ccnc(C(C)(C)C(F)(F)F)c1 [Alpelisib] (partner 2 µM)
In a few lines: as §1

Compound in a further test: COc1nc(N)nc2c1ncn2[C@@H]1O[C@H](CO)[C@@H](O)[C@@H]1O [Nelarabine]
In a few lines: (§2)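 Viability was read as treated-well nuclei divided by vehicle-well nuclei, using the median across plates. Lung cancer cell lines in 1536-well plates were kept overnight at 37 °C, pinned with five √10-spaced library-drug doses, and after 5 days were Hoechst-stained, imaged at 4× and counted in MetaXpress. Plates passed only with control CV below 25% and at least one doubling.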

Compound in the next test: C=CCn1c(=O)c2cnc(Nc3ccc(N4CCN(C)CC4)cc3)nc2n1-c1cccc(C(C)(C)O)n1 [Adavosertib]
In a few lines: as §2

Turning to NCI-H650, the relative viability was found to be 0.986 with Nelarabine + Pemetrexed (first compound 0.01 µM); 0.814 with Nelarabine + Pemetrexed (first compound 0.03162 µM); 0.913 with Nelarabine + Pemetrexed (first compound 0.1 µM); 0.971 in the test with Nelarabine + Pemetrexed (first compound 0.3162 µM); 1.02 with Nelarabine + Pemetrexed (first compound 1 µM); 1.15 with Adavosertib + Alpelisib (first compound 0.01 µM). The relative viability in the test with Adavosertib + Alpelisib (first compound 0.03162 µM) was determined as 1.1; in the test with Adavosertib + Alpelisib (first compound 0.1 µM) it was 1.17; in the test with Adavosertib + Alpelisib (first compound 0.3162 µM), 0.935; with Nelarabine (0.01 µM) it was 0.942; with Nelarabine (0.03162 µM) it was 0.996; with Nelarabine (0.1 µM), 0.962. Besides, the relative viability with Nelarabine (0.3162 µM) stood at 1; with Nelarabine (1 µM), 1.04; with Adavosertib (0.01 µM), 0.896; in the test with Adavosertib (0.03162 µM), 0.972; in the test with Adavosertib (0.1 µM), 1.03; with Adavosertib (0.3162 µM), 0.859.
As to NCI-H661, the relative viability with Nelarabine + Pemetrexed (first compound 0.01 µM) came to 0.963; with Nelarabine + Pemetrexed (first compound 0.03162 µM), 1.07; with Nelarabine + Pemetrexed (first compound 0.1 µM), 0.865; in the test with Nelarabine + Pemetrexed (first compound 0.3162 µM) it was 0.899; with Nelarabine + Pemetrexed (first compound 1 µM) it was 0.899; with Adavosertib + Alpelisib (first compound 0.01 µM) it was 0.492. Besides, the relative viability is 0.968 with Adavosertib + Alpelisib (first compound 0.03162 µM); 0.503 with Adavosertib + Alpelisib (first compound 0.1 µM); 0.595 with Adavosertib + Alpelisib (first compound 0.3162 µM); 1.07 in the test with Nelarabine (0.01 µM); 1.14 in the test with Nelarabine (0.03162 µM); 1 in the test with Nelarabine (0.1 µM). For the same cell line, the relative viability with Nelarabine (0.3162 µM) turned out to be 1.04; with Nelarabine (1 µM), 0.999; with Adavosertib (0.01 µM), 0.996; with Adavosertib (0.03162 µM) it was 1.03; in the test with Adavosertib (0.1 µM) it was 1.08; with Adavosertib (0.3162 µM) it was 0.769.
With NCI-H838, the relative viability stood at 0.268 with Nelarabine + Pemetrexed (first compound 0.01 µM); 0.252 with Nelarabine + Pemetrexed (first compound 0.03162 µM); 0.287 in the test with Nelarabine + Pemetrexed (first compound 0.1 µM); 0.278 with Nelarabine + Pemetrexed (first compound 0.3162 µM); 0.282 with Nelarabine + Pemetrexed (first compound 1 µM); 1.01 with Adavosertib + Alpelisib (first compound 0.01 µM). Further, the relative viability with Adavosertib + Alpelisib (first compound 0.03162 µM) was found to be 1.01; with Adavosertib + Alpelisib (first compound 0.1 µM), 0.996; with Adavosertib + Alpelisib (first compound 0.3162 µM), 1.08; with Nelarabine (0.01 µM) it was 1.3; in the test with Nelarabine (0.03162 µM) it was 0.893; with Nelarabine (0.1 µM), 0.986. Moreover, the relative viability with Nelarabine (0.3162 µM) worked out at 1.05; with Nelarabine (1 µM), 1.04; with Adavosertib (0.01 µM), 0.978; in the test with Adavosertib (0.03162 µM), 0.919; with Adavosertib (0.1 µM), 0.996; with Adavosertib (0.3162 µM), 0.948.
As for NCI-H1355, the relative viability is 1.12 in the test with Nelarabine + Pemetrexed (first compound 0.01 µM); 1.05 with Nelarabine + Pemetrexed (first compound 0.03162 µM); 1.02 with Nelarabine + Pemetrexed (first compound 0.1 µM); 1.15 with Nelarabine + Pemetrexed (first compound 0.3162 µM); 1.08 in the test with Nelarabine + Pemetrexed (first compound 1 µM); 0.878 in the test with Adavosertib + Alpelisib (first compound 0.01 µM). The relative viability with Adavosertib + Alpelisib (first compound 0.03162 µM) was found to be 0.84; with Adavosertib + Alpelisib (first compound 0.1 µM), 0.777; with Adavosertib + Alpelisib (first compound 0.3162 µM), 0.751; with Nelarabine (0.01 µM), 1.18; with Nelarabine (0.03162 µM), 0.875; with Nelarabine (0.1 µM) it was 1.03. Moreover, the relative viability with Nelarabine (0.3162 µM) was found to be 1.04; in the test with Nelarabine (1 µM) it was 1.02; in the test with Adavosertib (0.01 µM), 0.991; with Adavosertib (0.03162 µM) it was 0.99; in the test with Adavosertib (0.1 µM), 0.948; with Adavosertib (0.3162 µM), 0.986.
On to NCI-H1395, for which the relative viability with Nelarabine + Pemetrexed (first compound 0.01 µM) came to 0.818; in the test with Nelarabine + Pemetrexed (first compound 0.03162 µM), 0.755; with Nelarabine + Pemetrexed (first compound 0.1 µM) it was 1.21; in the test with Nelarabine + Pemetrexed (first compound 0.3162 µM) it was 0.773; with Nelarabine + Pemetrexed (first compound 1 µM), 0.707; in the test with Adavosertib + Alpelisib (first compound 0.01 µM), 0.975. The relative viability in the test with Adavosertib + Alpelisib (first compound 0.03162 µM) is 1.1; with Adavosertib + Alpelisib (first compound 0.1 µM), 1.03; in the test with Adavosertib + Alpelisib (first compound 0.3162 µM), 0.732; with Nelarabine (0.01 µM), 0.997; with Nelarabine (0.03162 µM), 0.821; with Nelarabine (0.1 µM) it was 1.02. The relative viability came to 0.928 with Nelarabine (0.3162 µM); 0.842 in the test with Nelarabine (1 µM); 0.83 with Adavosertib (0.01 µM); 0.901 with Adavosertib (0.03162 µM); 0.887 with Adavosertib (0.1 µM); 0.775 in the test with Adavosertib (0.3162 µM).
As for NCI-H1437, the relative viability turned out to be 0.344 with Nelarabine + Pemetrexed (first compound 0.01 µM); 0.359 with Nelarabine + Pemetrexed (first compound 0.03162 µM); 0.301 in the test with Nelarabine + Pemetrexed (first compound 0.1 µM); 0.39 with Nelarabine + Pemetrexed (first compound 0.3162 µM); 0.323 with Nelarabine + Pemetrexed (first compound 1 µM); 1.01 with Adavosertib + Alpelisib (first compound 0.01 µM). In addition, the relative viability was determined as 1.02 with Adavosertib + Alpelisib (first compound 0.03162 µM); 0.897 in the test with Adavosertib + Alpelisib (first compound 0.1 µM); 0.977 in the test with Adavosertib + Alpelisib (first compound 0.3162 µM); 1.21 with Nelarabine (0.01 µM); 0.989 with Nelarabine (0.03162 µM); 0.994 with Nelarabine (0.1 µM). The relative viability worked out at 1.04 with Nelarabine (0.3162 µM); 0.918 with Nelarabine (1 µM); 1.02 with Adavosertib (0.01 µM); 0.912 with Adavosertib (0.03162 µM); 1.03 in the test with Adavosertib (0.1 µM); 0.981 with Adavosertib (0.3162 µM).
Regarding NCI-H1563, the relative viability was 0.765 with Nelarabine + Pemetrexed (first compound 0.01 µM); 0.811 with Nelarabine + Pemetrexed (first compound 0.03162 µM); 0.77 with Nelarabine + Pemetrexed (first compound 0.1 µM); 0.812 in the test with Nelarabine + Pemetrexed (first compound 0.3162 µM); 0.787 in the test with Nelarabine + Pemetrexed (first compound 1 µM); 0.924 with Adavosertib + Alpelisib (first compound 0.01 µM). In addition, the relative viability amounted to 0.943 with Adavosertib + Alpelisib (first compound 0.03162 µM); 0.949 with Adavosertib + Alpelisib (first compound 0.1 µM); 1.12 with Adavosertib + Alpelisib (first compound 0.3162 µM); 1.04 with Nelarabine (0.01 µM); 1.03 with Nelarabine (0.03162 µM); 0.951 in the test with Nelarabine (0.1 µM). Moreover, the relative viability with Nelarabine (0.3162 µM) was determined as 0.985; in the test with Nelarabine (1 µM), 0.986; with Adavosertib (0.01 µM) it was 0.954; with Adavosertib (0.03162 µM) it was 0.894; in the test with Adavosertib (0.1 µM), 0.917; with Adavosertib (0.3162 µM), 1.01.
Take NCI-H1651: the relative viability turned out to be 0.406 with Nelarabine + Pemetrexed (first compound 0.01 µM); 0.548 in the test with Nelarabine + Pemetrexed (first compound 0.03162 µM); 0.63 with Nelarabine + Pemetrexed (first compound 0.1 µM); 0.643 with Nelarabine + Pemetrexed (first compound 0.3162 µM); 0.564 with Nelarabine + Pemetrexed (first compound 1 µM); 0.833 in the test with Adavosertib + Alpelisib (first compound 0.01 µM). Also, the relative viability with Adavosertib + Alpelisib (first compound 0.03162 µM) was found to be 1.06; with Adavosertib + Alpelisib (first compound 0.1 µM), 0.936; with Adavosertib + Alpelisib (first compound 0.3162 µM), 0.687; with Nelarabine (0.01 µM), 1.1; in the test with Nelarabine (0.03162 µM), 1.07; with Nelarabine (0.1 µM), 1.06. Further, the relative viability with Nelarabine (0.3162 µM) came to 1.08; with Nelarabine (1 µM), 1.01; with Adavosertib (0.01 µM), 0.947; in the test with Adavosertib (0.03162 µM) it was 0.985; with Adavosertib (0.1 µM), 0.979; with Adavosertib (0.3162 µM), 0.951.
